Key:
Test in all cases: Differential Scanning Fluorimetry (DSF) Tm shift
Format in all cases: binding
CDK2 + Cyclin A = biological target: T1, CDK2 + Cyclin A (Homo sapiens, UniProt P24941); settings: CDK2 + Cyclin A; 2 µM protein, 10 µM inhibitor; average of 3 experiments, each in duplicate
T1 construct: CDK2 (P24941); 1–299; His-tag; made in house; host or cells: Escherichia coli

CHK2 Catalytic Domain = biological target: T2, CHK2 Catalytic Domain (Homo sapiens, UniProt O96017); settings: 2 µM protein, 10 µM inhibitor, average of 3 experiments, each in duplicate
T2 construct: For all of them, we expressed and purified the catalytic domain separately; His-tag; made in house; host or cells: Escherichia coli

[1] = biological target: T3, PAK4 Catalytic Domain+PBD (Homo sapiens, UniProt O96013); settings: 2 µM protein, 10 µM inhibitor, average of 3 experiments, each in duplicate
T3 construct: for 8, we also made a longer version containing one or more additional domains; His-tag; made in house; host or cells: Escherichia coli

PAK7 Catalytic Domain = biological target: T4, PAK7 Catalytic Domain (Homo sapiens, UniProt Q9P286); settings: 2 µM protein, 10 µM inhibitor, average of 3 experiments, each in duplicate
T4 construct: For all of them, we expressed and purified the catalytic domain separately; His-tag; made in house; host or cells: Escherichia coli

[2] = biological target: SRC Catalytic Domain+SH2+SH3 (Homo sapiens, UniProt P12931); settings: 2 µM protein, 10 µM inhibitor, average of 3 experiments, each in duplicate
DMPK Catalytic Domain = biological target: T5, DMPK Catalytic Domain (Homo sapiens, UniProt Q09013); settings: 2 µM protein, 10 µM inhibitor, average of 3 experiments, each in duplicate
T5 construct: For all of them, we expressed and purified the catalytic domain separately; His-tag; made in house; host or cells: Escherichia coli
T5 sequence (Q09013 71-339 limits assumed): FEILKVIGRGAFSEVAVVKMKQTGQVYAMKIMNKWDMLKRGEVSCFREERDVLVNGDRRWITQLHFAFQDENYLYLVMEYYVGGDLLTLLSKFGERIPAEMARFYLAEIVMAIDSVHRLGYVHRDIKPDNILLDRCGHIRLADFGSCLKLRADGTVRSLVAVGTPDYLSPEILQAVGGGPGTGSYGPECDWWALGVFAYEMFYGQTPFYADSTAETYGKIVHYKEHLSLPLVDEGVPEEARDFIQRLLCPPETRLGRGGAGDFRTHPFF

STK3 Catalytic Domain = biological target: T6, STK3 Catalytic Domain (Homo sapiens, UniProt Q13188); settings: 2 µM protein, 10 µM inhibitor, average of 3 experiments, each in duplicate
T6 construct: For all of them, we expressed and purified the catalytic domain separately; His-tag; made in house; host or cells: Escherichia coli
T6 sequence (Q13188 27-278 limits assumed): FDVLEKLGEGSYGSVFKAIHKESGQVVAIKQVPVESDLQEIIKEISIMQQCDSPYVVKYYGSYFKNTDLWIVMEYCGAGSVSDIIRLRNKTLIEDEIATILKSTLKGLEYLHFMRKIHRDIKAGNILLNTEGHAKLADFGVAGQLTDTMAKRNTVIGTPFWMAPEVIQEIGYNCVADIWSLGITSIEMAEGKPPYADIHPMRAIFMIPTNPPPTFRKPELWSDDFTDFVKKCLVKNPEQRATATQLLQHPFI

FAK2 Catalytic Domain = biological target: T7, FAK2 Catalytic Domain (Homo sapiens, UniProt Q14289); settings: 2 µM protein, 10 µM inhibitor, average of 3 experiments, each in duplicate
T7 construct: For all of them, we expressed and purified the catalytic domain separately; His-tag; made in house; host or cells: Escherichia coli

PAK4 Catalytic Domain = biological target: T8, PAK4 Catalytic Domain (Homo sapiens, UniProt O96013); settings: 2 µM protein, 10 µM inhibitor, average of 3 experiments, each in duplicate
T8 construct: For all of them, we expressed and purified the catalytic domain separately; His-tag; made in house; host or cells: Escherichia coli

[3] = biological target: T9, STK3 Catalytic domain+SARAH (Homo sapiens, UniProt Q13188); settings: 2 µM protein, 10 µM inhibitor, average of 3 experiments, each in duplicate
T9 construct: for 8, we also made a longer version containing one or more additional domains; His-tag; made in house; host or cells: Escherichia coli
T9 sequence (Q13188 1-491): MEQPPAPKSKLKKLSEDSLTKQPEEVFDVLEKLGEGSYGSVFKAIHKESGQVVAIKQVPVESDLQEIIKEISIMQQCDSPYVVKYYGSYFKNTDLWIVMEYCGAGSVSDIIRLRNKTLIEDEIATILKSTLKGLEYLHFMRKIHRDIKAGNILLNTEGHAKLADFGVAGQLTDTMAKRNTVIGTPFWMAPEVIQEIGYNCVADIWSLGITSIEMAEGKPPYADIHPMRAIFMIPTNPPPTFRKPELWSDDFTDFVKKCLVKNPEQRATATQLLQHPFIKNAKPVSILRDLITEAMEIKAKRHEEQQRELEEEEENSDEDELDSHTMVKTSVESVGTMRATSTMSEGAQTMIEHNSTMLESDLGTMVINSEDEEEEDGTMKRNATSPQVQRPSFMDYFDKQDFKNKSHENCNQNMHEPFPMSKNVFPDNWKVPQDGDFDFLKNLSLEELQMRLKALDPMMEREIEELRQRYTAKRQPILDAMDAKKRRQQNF

AKT3 Catalytic Domain = biological target: T10, AKT3 Catalytic Domain (Homo sapiens, UniProt Q9Y243); settings: 2 µM protein, 10 µM inhibitor, average of 3 experiments, each in duplicate
T10 construct: AKT3 (Q9Y243); CD; His-tag; made in house; host or cells: Escherichia coli

FES Catalytic Domain = biological target: T11, FES Catalytic Domain (Homo sapiens, UniProt P07332); settings: 2 µM protein, 10 µM inhibitor, average of 3 experiments, each in duplicate
T11 construct: For all of them, we expressed and purified the catalytic domain separately; His-tag; made in house; host or cells: Escherichia coli

FES Catalytic Domain+SH2 = biological target: T12, FES Catalytic Domain+SH2 (Homo sapiens, UniProt P07332); settings: 2 µM protein, 10 µM inhibitor, average of 3 experiments, each in duplicate
T12 construct: for 8, we also made a longer version containing one or more additional domains; His-tag; made in house; host or cells: Escherichia coli
T12 sequence (P07332 448-822 limits assumed): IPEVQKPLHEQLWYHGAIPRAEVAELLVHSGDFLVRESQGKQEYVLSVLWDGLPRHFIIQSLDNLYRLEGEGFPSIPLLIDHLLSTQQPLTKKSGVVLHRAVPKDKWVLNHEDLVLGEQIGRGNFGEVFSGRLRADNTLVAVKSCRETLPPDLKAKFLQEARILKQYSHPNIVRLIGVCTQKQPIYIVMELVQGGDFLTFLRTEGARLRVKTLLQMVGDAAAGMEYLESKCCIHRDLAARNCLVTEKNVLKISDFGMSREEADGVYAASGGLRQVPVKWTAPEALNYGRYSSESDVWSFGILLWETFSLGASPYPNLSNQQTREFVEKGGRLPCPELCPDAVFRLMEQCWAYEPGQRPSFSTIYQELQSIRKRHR

T8 sequence (O96013 321-572 limits assumed): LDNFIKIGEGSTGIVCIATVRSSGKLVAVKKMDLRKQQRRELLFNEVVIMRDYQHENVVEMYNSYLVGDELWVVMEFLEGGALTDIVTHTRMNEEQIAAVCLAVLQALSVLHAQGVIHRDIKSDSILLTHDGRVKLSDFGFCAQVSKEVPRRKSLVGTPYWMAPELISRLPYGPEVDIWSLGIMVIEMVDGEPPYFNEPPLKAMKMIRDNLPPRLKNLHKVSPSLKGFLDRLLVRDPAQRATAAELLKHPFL
T3 sequence (O96013 whole entry, the tested form may be a part): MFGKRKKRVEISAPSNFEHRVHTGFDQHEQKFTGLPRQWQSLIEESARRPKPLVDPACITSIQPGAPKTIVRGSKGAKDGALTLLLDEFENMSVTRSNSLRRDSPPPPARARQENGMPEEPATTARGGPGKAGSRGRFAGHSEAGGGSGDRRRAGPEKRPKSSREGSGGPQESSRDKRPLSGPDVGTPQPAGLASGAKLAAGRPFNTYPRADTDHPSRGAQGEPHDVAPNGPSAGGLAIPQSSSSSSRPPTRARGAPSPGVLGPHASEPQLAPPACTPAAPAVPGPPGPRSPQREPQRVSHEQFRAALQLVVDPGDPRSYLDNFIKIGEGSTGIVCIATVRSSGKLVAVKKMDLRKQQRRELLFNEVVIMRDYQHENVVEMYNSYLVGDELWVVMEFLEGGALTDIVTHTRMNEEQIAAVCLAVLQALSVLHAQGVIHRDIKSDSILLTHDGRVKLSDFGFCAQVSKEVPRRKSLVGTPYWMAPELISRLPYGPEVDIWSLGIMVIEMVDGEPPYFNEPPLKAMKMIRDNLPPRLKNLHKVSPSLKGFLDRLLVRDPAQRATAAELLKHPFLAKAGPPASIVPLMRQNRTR
T10 sequence (Q9Y243 122-479): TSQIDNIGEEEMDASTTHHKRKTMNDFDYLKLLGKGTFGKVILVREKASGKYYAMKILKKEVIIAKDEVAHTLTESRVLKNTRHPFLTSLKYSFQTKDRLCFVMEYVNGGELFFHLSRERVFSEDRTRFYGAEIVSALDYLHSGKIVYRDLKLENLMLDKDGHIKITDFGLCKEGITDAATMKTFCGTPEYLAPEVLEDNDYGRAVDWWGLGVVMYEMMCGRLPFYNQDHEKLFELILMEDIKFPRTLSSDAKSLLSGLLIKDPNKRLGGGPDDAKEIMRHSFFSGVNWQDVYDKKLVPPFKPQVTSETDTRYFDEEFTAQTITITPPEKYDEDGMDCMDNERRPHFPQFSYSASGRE
SRC Catalytic Domain+SH2+SH3, sequence (P12931 84-523 limits assumed): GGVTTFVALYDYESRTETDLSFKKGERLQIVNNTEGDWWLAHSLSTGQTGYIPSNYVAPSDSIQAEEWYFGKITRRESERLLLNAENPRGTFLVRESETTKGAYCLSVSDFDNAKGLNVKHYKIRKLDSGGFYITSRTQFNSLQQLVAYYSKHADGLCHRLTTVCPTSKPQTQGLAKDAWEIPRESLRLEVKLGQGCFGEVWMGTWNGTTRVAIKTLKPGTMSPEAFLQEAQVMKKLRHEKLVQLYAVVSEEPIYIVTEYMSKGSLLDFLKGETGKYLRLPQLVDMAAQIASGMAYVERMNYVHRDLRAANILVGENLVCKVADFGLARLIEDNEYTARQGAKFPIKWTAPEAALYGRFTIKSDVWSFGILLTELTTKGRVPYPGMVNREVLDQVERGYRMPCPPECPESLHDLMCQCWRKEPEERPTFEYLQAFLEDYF
T2 sequence (O96017 220-486 limits assumed): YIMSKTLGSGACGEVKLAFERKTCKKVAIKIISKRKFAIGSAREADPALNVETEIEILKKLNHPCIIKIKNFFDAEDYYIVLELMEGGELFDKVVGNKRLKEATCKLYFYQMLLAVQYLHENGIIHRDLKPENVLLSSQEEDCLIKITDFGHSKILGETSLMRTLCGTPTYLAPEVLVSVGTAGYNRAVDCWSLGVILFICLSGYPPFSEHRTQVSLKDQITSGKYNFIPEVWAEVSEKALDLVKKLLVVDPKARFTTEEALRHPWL
T4 sequence (Q9P286 449-700 limits assumed): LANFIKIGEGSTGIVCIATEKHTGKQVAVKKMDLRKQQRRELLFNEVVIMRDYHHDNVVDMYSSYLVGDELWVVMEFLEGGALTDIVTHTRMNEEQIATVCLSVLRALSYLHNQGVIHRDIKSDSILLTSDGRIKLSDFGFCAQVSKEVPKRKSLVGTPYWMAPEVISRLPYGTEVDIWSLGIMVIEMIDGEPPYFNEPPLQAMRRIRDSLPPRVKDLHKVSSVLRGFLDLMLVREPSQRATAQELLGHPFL
T7 sequence (Q14289 425-683 limits assumed): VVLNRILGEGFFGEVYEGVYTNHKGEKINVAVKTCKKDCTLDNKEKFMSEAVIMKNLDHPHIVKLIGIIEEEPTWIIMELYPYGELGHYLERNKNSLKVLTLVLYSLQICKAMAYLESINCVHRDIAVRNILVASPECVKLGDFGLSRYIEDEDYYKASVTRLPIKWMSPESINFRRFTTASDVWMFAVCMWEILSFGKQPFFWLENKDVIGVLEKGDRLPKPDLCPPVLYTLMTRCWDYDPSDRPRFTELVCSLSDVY
T11 sequence (P07332 561-822 limits assumed): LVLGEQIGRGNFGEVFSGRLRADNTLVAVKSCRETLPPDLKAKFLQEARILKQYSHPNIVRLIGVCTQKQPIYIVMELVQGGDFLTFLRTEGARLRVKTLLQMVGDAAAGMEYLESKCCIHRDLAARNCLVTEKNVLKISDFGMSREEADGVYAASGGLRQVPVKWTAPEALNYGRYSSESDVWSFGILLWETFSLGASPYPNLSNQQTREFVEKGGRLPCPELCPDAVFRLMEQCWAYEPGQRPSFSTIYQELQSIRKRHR

Compound | Melting temperature (Tm) shift (CDK2 + Cyclin A) [degrees Celcius] | Melting temperature (Tm) shift (CHK2 Catalytic Domain) [degrees Celcius] | Melting temperature (Tm) shift [1] [degrees Celcius] | Melting temperature (Tm) shift (PAK7 Catalytic Domain) [degrees Celcius] | Melting temperature (Tm) shift [2] [degrees Celcius] | Melting temperature (Tm) shift (DMPK Catalytic Domain) [degrees Celcius] | Melting temperature (Tm) shift (STK3 Catalytic Domain) [degrees Celcius] | Melting temperature (Tm) shift (FAK2 Catalytic Domain) [degrees Celcius] | Melting temperature (Tm) shift (PAK4 Catalytic Domain) [degrees Celcius] | Melting temperature (Tm) shift [3] [degrees Celcius] | Melting temperature (Tm) shift (AKT3 Catalytic Domain) [degrees Celcius] | Melting temperature (Tm) shift (FES Catalytic Domain) [degrees Celcius] | Melting temperature (Tm) shift (FES Catalytic Domain+SH2) [degrees Celcius]
CN(C)c1nc2c(Br)c(Br)c(Br)c(Br)c2[nH]1 [Casein Kinase II Inhibitor II, DMAT] | 0.5 | 0.3 | 0.3 | 4.1 | 0.9 | 0.4 | 0.3 | 3.2 | 0.2 | 0.4 | – | – | –
CC#CC(=O)Nc1cc2c(Nc3ccc(F)c(Cl)c3)ncnc2cn1 [EGFR/ErbB-2/ErbB-4 Inhibitor] | – | 0.3 | 0.1 | 0.0 | 0.0 | – | 0.2 | – | – | – | 0.0 | 0.0 | –
O=C1c2ccccc2-[n+]2ccc3c([nH]c4ccccc43)c21 [Fascaplysin, Synthetic, Fascaplysin] | – | – | – | – | – | 0.4 | – | – | – | – | 0.1 | 0.2 | 0.0
O=C1C(Cl)=C(N2C(=O)CCC2=O)C(=O)c2ccccc21 [MEK Inhibitor II] | 0.1 | 0.0 | – | 0.0 | 0.0 | – | – | – | 0.0 | 0.1 | 0.3 | 0.0 | 0.0
Akt Inhibitor VIII, Isozyme-Selective, Akti-1/2 | 0.2 | 0.4 | – | 0.0 | – | – | – | 0.1 | – | – | – | – | –
COc1ccc2c(c1)c1c3c(c4c5ccccc5n(C)c4c1n2CC(O)CN(C)C)C(=O)NC3=O.Cl (stereo not shown) [Gö 7874, Hydrochloride] | 0.2 | 1.1 | 0.1 | 0.1 | – | 0.2 | 1.4 | 0.7 | – | 2.2 | 0.2 | 0.3 | 0.0
O=C1Nc2ccc(I)cc2/C1=C1/Nc2ccccc2/C1=N\O [Indirubin-3ʹ′-monoxime, 5-Iodo-, Indirubin-3′ -monoxime, 5-Iodo-] | – | – | 2.3 | – | – | – | 1.2 | – | 0.3 | 5.6 | – | – | –

Source: article PMC4051630, “A Comparison of Protein Kinases Inhibitor Screening Methods Using Both Enzymatic Activity and Binding Affinity Determination” (PLoS ONE, 2014)
